Measured values from ChEMBL document CHEMBL1201862, “PubChem BioAssay data set” (2004).
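1) Cells in 96-well plates. 2) Compound, 48 h, 5 concentrations. 3) Linear interpolation between surrounding doses. 4) Unreached endpoint = highest concentration. GI50 is the concentration that inhibits growth by half.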 The source made the active and inactive calls. Cut-off read from the data, not from the text of the source: active = GI50 up to about 1.1 µM and inactive = higher.

Experiments:
Test in all cases: NCI anticancer screen, dose series, 48 h
SK-MEL-2 = test system: SK-MEL-2
OVCAR-4 = test system: OVCAR-4
SNB-75 = test system: SNB-75
NCI-H23 = test system: NCI-H23
SF-268 = test system: SF-268
ACHN = test system: ACHN
SK-MEL-28 = test system: SK-MEL-28
NCI-H522 = test system: NCI-H522
SNB-19 = test system: SNB-19
SF-295 = test system: SF-295
HL-60 = test system: HL-60
U-251 = test system: U-251
UACC-62 = test system: UACC-62
OVCAR-8 = test system: OVCAR-8
IGROV-1 = test system: IGROV-1
NCI/ADR-RES = test system: NCI/ADR-RES
T47D = test system: T47D
MDA-MB-231 = test system: MDA-MB-231
PC-3 = test system: PC-3
MDA-N = test system: MDA-N

Structure (SMILES)	GI50 (SK-MEL-2)	GI50 (OVCAR-4)	GI50 (SNB-75)	GI50 (NCI-H23)	GI50 (SF-268)	GI50 (ACHN)	GI50 (SK-MEL-28)	GI50 (NCI-H522)	GI50 (SNB-19)	GI50 (SF-295)	GI50 (HL-60)	GI50 (U-251)	GI50 (UACC-62)	GI50 (OVCAR-8)	GI50 (IGROV-1)	GI50 (NCI/ADR-RES)	GI50 (T47D)	GI50 (MDA-MB-231)	GI50 (PC-3)	GI50 (MDA-N)
C[C@]12CCC(=O)C=C1CC[C@@H]1[C@@H]2[C@@H](O)C[C@@]2(C)[C@H]1CC[C@]2(O)C(=O)COC(=O)COCC(=O)O	> 100 µM (inactive)	> 100 µM (inactive)	> 100 µM (inactive)	> 100 µM (inactive)	> 100 µM (inactive)	> 100 µM (inactive)	> 100 µM (inactive)	> 100 µM (inactive)	> 100 µM (inactive)	> 100 µM (inactive)	> 100 µM (inactive)	> 100 µM (inactive)	> 100 µM (inactive)	> 100 µM (inactive)	> 100 µM (inactive)					
COc1c2ccoc2c(S(=O)(=O)Nc2ccc(Cl)cc2)c2oc(C)cc(=O)c12	> 76.2 µM (inactive)	32.5 µM (inactive)	27.2 µM (inactive)	> 100 µM (inactive)	52.6 µM (inactive)		> 100 µM (inactive)	73.6 µM (inactive)	99.1 µM (inactive)	> 89.7 µM (inactive)	23.9 µM (inactive)	> 100 µM (inactive)	> 100 µM (inactive)	58.3 µM (inactive)	> 100 µM (inactive)	> 100 µM (inactive)				
COc1ccc2c(c1)CCN1CCCc3ccccc3C21 (stereo unspecified)	46.3 µM (inactive)	> 100 µM (inactive)	22 µM (inactive)	45.8 µM (inactive)	36 µM (inactive)	54.2 µM (inactive)	50.1 µM (inactive)	34.4 µM (inactive)	94.6 µM (inactive)	26.4 µM (inactive)		37.2 µM (inactive)	31 µM (inactive)	91 µM (inactive)	47.6 µM (inactive)	41.3 µM (inactive)	45.1 µM (inactive)	23.1 µM (inactive)	36.9 µM (inactive)	
CCN(C(=O)N[C@@H](Cc1ccccc1)C(=O)N[C@@H](CC(C)C)C(=O)OC)c1ccccc1	61 µM (inactive)	28.1 µM (inactive)		24 µM (inactive)		21.3 µM (inactive)	17.5 µM (inactive)	9.55 µM (inactive)	77.6 µM (inactive)	26.5 µM (inactive)		25.9 µM (inactive)	17.7 µM (inactive)	15.3 µM (inactive)	17 µM (inactive)	26.5 µM (inactive)	77.6 µM (inactive)	55.7 µM (inactive)	35.1 µM (inactive)	69.3 µM (inactive)
CC(C)OC(=O)[C@@H](O)[C@H](CO)C1=CC([Si](C)(C)c2ccccc2)=CON1	> 100 µM (inactive)	> 100 µM (inactive)	1.26 µM (inactive)	> 100 µM (inactive)	> 100 µM (inactive)	> 100 µM (inactive)	> 100 µM (inactive)		> 100 µM (inactive)	> 100 µM (inactive)		> 100 µM (inactive)	> 100 µM (inactive)	> 100 µM (inactive)		> 100 µM (inactive)	> 100 µM (inactive)	> 100 µM (inactive)	> 100 µM (inactive)	
CCCCC1(O)CC2CC1C(C)C2(C)C (stereo unspecified)		> 100 µM (inactive)	> 100 µM (inactive)	> 100 µM (inactive)	> 100 µM (inactive)		> 100 µM (inactive)		> 100 µM (inactive)	> 100 µM (inactive)	21.5 µM (inactive)	> 100 µM (inactive)	> 100 µM (inactive)	> 100 µM (inactive)	> 100 µM (inactive)	> 100 µM (inactive)		> 100 µM (inactive)	> 100 µM (inactive)	> 100 µM (inactive)
COc1cc2c(c(OC)c1OC)-c1ccc(SC)c(=O)cc1[C@@H](OC(=O)c1ccncc1)CC2	0.407 µM (active)	27 µM (inactive)	< 0.01 µM (active)	< 0.01 µM (active)	< 0.01 µM (active)	< 0.01 µM (active)		< 0.01 µM (active)	< 0.01 µM (active)	< 0.01 µM (active)		< 0.01 µM (active)	< 0.01 µM (active)	< 0.01 µM (active)	< 0.01 µM (active)	< 0.01 µM (active)	> 61.7 µM (inactive)	< 0.01 µM (active)	< 0.01 µM (active)	< 0.01 µM (active)
CS(=O)(=O)c1ccc2nc(-c3ccc(O)cc3)sc2c1	20 µM (inactive)			19 µM (inactive)	15.5 µM (inactive)	17.9 µM (inactive)		13.9 µM (inactive)	17.4 µM (inactive)	16.7 µM (inactive)	21.2 µM (inactive)	19 µM (inactive)	17.9 µM (inactive)	20.5 µM (inactive)	19.2 µM (inactive)	13.8 µM (inactive)		20.6 µM (inactive)	17.5 µM (inactive)	17.7 µM (inactive)
